Reference: US11154533B2, “Topical compositions and methods for treating inflammatory skin diseases” (Azora Therapeutics, Inc., priority 2019, dated 2021)

Key:
Assay in all cases: Pharmacodynamics in Th17-stimulated human skin on Franz cell, qPCR
Type in all cases: cell-based
Conditions in all cases: control added to receptor solution at 40 hours and 16 hours prior to Th17 stimulation
[1] = tested on: IL8
Procedure: (§1) Example 5 describes results of a study on the pharmacodynamics of composition identified as formulation identification no. OO14. In this study, human skin placed on a static in vitro diffusion cell and a fixed amount of the formulation was applied to the skin. The formulation was applied to the skin at either 16 hours prior to or both 40 hours and 16 hours prior to Th17 stimulation. The receptor solution was replaced with the Th17 stimulation media was incubated for 24 hours prior to harvesting. […] As a control, 0.01% betamethasone (BMV) was added to the receptor solution at both 40 hours and 16 hours prior to Th17 stimulation.
(§2) Freshly excised human skin was dermatomed to 750 microns with the stratum corneum intact and placed on a static Franz cell employing ˜0.6 cm^2 of skin. 10 μL of a topical formulation OO14 containing 0.079% synthetic indirubin was applied to the skin at either 16 hours prior to stimulation or both 40 hours and 16 hours prior to Th17 stimulation. As a control, 0.01% betamethasone (BMV) was added to the receptor solution at both 40 hours and 16 hours prior to Th17 stimulation. The Th17 stimulation media contains a mixture of cytokines and antibodies shown to induce Th17 polarization and was made and added as described in the skin resident immune cell activation assay in Smith S. H. et al., PLoS ONE 11(2): e0147979. The skin was cultured for an additional 24 hours prior to harvesting for qPCR and staining for AhR activation.

[2] = tested on: IL1-beta
Procedure: as §1, §2

[3] = tested on: IL17-alpha
Procedure: as §1, §2

[4] = tested on: S100A7
Procedure: as §1, §2

C[C@H]1C[C@H]2[C@@H]3CCC4=CC(=O)C=C[C@]4(C)[C@@]3(F)[C@@H](O)C[C@]2(C)[C@@]1(O)C(=O)CO [0.01% BMV, betamethasone]
% Inhibition Compared to Th17, IL8 [1]: 14.01%
% Inhibition Compared to Th17, IL1-beta [2]: 58.66%
% Inhibition Compared to Th17, IL17-alpha [3]: 96.99%
% Inhibition Compared to Th17, S100A7 [4]: N/I* (Not Inhibited compared to Th17)
